Measurements reported in patent publication US20090203685A1, “ANTI-PROLIFERATIVE COMPOUNDS FROM A 3-ARYL-COUMARINE OR 3-ARYL-QUINOLIN-2-ONE AND USES THEREOF” (EOS (ETHICAL ONCOLOGY SCIENCE) S.P.A., priority 2006, published 2009).

Assays:
U937 = assay: Cell cycle analysis, U937; format: cell-based, human; conditions: 500 nM
Experimental: The cells are pelleted by gentle centrifugation 1200 rpm/5 min/4° C., then the supernatant is discarded and the cells are fixed with 1 mL of PBS/Ethanol 70% overnight at −20° C. The tubes are then centrifuged during 5 minutes at 1200 rpm and the supernatant is removed. The pellet is then re-suspended in 450 μL of PBS before 50 μL of RNAse (1 mg/mL) and 5 μL of propidium iodide (2 mg/mL) are added. Each tube is left 30 minutes at 37° C. and immediately analysed by flow cytometry after incubation.
A biparametric dot plot representation FL3 peak vs FL3 integer is plotted and the cells located on the diagonal are gated and analysed on a histogram representing the number of cells as a function of the FL3 peak.
To assess the relative position of cursors defining relative proportion of cells in subG1, G1, S or G2 phase of the cell cycle, G1 and G2 peaks are to be defined first:
The G1 peak is defined as the major peak in absence of treatment (generally X=200);
The G2 peak is centered on the value which is twice the value of the G1 peak (generally X=400).
Cells in subG1 phase are plotted in the part of the histogram preceding the G1 peak (generally X<200) and cells in S phase are enclosed in the area between the G1 and G2 peaks.
On this graphic, subG1, G1, S and G2/M phases of the cell cycle can thus be defined.
Viability and cell cycle profile, tested with compound (01), at 500 nM: […]

U937 cells = assay: Apoptosis assays by flow cytometry (caspase 3, annexin-V, sub-G1, G2/M, PI) in U937 cells; format: cell-based, human; conditions: 0.5 μM, 4 to 24 hours
Experimental: FIG. 4: This figure depicts the time course of cellular effects induced by 0.5 μM of compound 01 in U937 cells.
The percentage of cells showing activated Caspase 3 and phosphadityl serine exposure at the outer face of the plasma membrane were determined by flow cytometry, according the enclosed protocols. Both assays enable to detect early markers of apoptosis. […] Such DNA content is classically used as a marker of apoptosis. […] Finally, in this same experiment, the percentage of dead cells was determined by incorporation of propidium iodine. […]
Wells corresponding to 4, 6, 8, 10 hours of incubation and Control 1 were analyzed on day 1.
Wells corresponding to 12, 14, 16, 20, 24 hours of incubation and Control 2 were analyzed on day 2. […]
Briefly, 5×10^5 cells were pelleted by centrifugation 1600 rpm/4° C., resuspended in 100 μl of ice-cold 1× Annexin-V Binding Buffer containing 1 μl of Annexin V-FITC solution and 5 μl of PI (250 μg/ml). After 15 minutes of incubation on ice in the dark, 400 μl of 1× binding buffer were added and cell preparations analysed by flow cytometry. […]
For each data point, a minimum of 20.000 cells were analysed.
Caspase-3,7 activity and Annexin-V binding were quantified using the FL-1 channel while PI staining was quantified using the FL-4 channel. […]

COc1cc(NC(=S)NC(=O)/C=C/c2ccco2)ccc1-c1cc2ccccc2oc1=O [Compound 01, (2E)-3-(2-furyl)-N-({[3-methoxy-4-(2-oxo-2H-chromen-3-yl)phenyl]amino}carbonothioyl)acrylamide]
Cell cycle profile - 72 h (U937): Strong sub-G1
Cytostatic effect on U937 cells (early increase of G2/M population) (U937 cells): cytostatic effect
Induction of apoptosis (activated caspase 3, phosphatidylserine exposure, sub-G1 DNA content) (U937 cells): induces apoptosis
